Here are results for 4 compounds from patent publication US20110015261A1, “USE OF A COMPOSITION COMPRISING AT LEAST ONE BETA-BLOCKER FOR THE TREATMENT OF SLEEP DISORDERS” (Zleepax Europe ApS, priority 2007, published 2011).

Data set [1] has as its system patients with hypertension. Conditions: cited from earlier work; for effect on the quality of sleep: patients with hypertension (Stoschitzky 2006).
The subject of data set [2] is nocturnal aMT6s secretion. Conditions: healthy volunteers (Stoschitzky 2006); cited from earlier work.
Data set [3] has as its system non-hypertensive stressed individuals with transient insomnia. The data set can be described thus: Sleep quality in non-hypertensive stressed individuals with transient insomnia. Type of data set: in vivo, human. Conditions: 1.25 mg 2 hours before bedtime; 6 individuals (5 males, 1 female). The procedure: 6 non-hypertensive stressed individuals with transient insomnia (5 males and 1 female) were treated with 1.25 mg Hypoloc (Nebivolol) 2 hours before bedtime.

SMILES strings stand for the structures. Like-named read-outs stand apart in the source and are kept apart here.

Take `COc1ccccc1OCCNCC(O)COc1cccc2[nH]c3ccccc3c12` (centres unmarked) [Carvedilol]: the “effect on the quality of sleep” value in data set [1] is reported as “no negative effect”. For the same compound, the “effects on the nocturnal aMT6s urinary secretion” value in data set [2] is reported as “little if any effects”.

`C[C@H](CS)C(=O)N1CCC[C@H]1C(=O)O` [Captopril]: in data set [1] (patients with hypertension (Testa 1993)), the quality of sleep entry was “improve the quality of sleep”.

Take `CC(C)NCC(O)COc1ccc(COCCOC(C)C)cc1` (centres unmarked) [Bisoprolol]: the “effect on the quality of sleep” value in data set [1] is on record as “no negative effect”.

`OC(CNCC(O)C1CCc2cc(F)ccc2O1)C1CCc2cc(F)ccc2O1` (centres unmarked) [Nebivolol]: in data set [3], the “sleep quality as reported by individuals” value is reported as “significant improvement in sleep quality”. Moreover, the quality of sleep result in data set [1] (patients with hypertension (Erdem 2007)) is listed as “can improve the quality of sleep”. Further, the “effect on the quality of sleep” value in data set [1] is reported as “no negative effect”. Further, in data set [2], the “effects on the nocturnal aMT6s urinary secretion” value was “little if any effects”.
